Values quoted from earlier work as cited in patent US7596836B2 (priority 2007, dated 2009).

Columns and labels:
[1] = in vivo
[2] = in vivo; remark: listed apart in the source
[3] = test system: HIV; conditions: clinical trials; response directly related to the dosage given
[4] = 250 mg chloroquine phosphate twice daily must be monitored closely
[5] = test system: Avian Influenza H5N1; conditions: patients worldwide, current strain of Avian Influenza H5N1
[6] = reports in Japan, including suicide attempts
[7] = test system: influenza; conditions: dosage of a compound containing 1% to 3% thymol

## CC1CCC(C(C)C)C(O)C1 (stereo not shown) [Menthol]
[1]
  reduction of coughing: 50%

## CCN(CC)CCCC(C)Nc1ccnc2cc(Cl)ccc12 (stereo not shown) [chloroquine]
[2]
  serum half-life: 96 h
[3]
  efficacy against HIV: effective against HIV
[4]
  toxicity of oral chloroquine: ocular complications and renal toxicity

## CCOC(=O)C1=C[C@@H](OC(CC)CC)[C@H](NC(C)=O)[C@@H](N)C1 [oseltamivir]
[5]
  mortality of oseltamivir treated patients: ~50%
[6]
  reported side effects: serious neuropsychiatric symptoms

## Cc1ccc(C(C)C)c(O)c1 [thymol, Thymol]
[7]
  effect against influenza: effective at fighting influenza
